Assay results taken from publication PMC12766724, “Synthesis, Anthelmintic Activity, and Mechanism of Action of 5‑Aryl‑1H‑indoles” (Journal of Agricultural and Food Chemistry, 2025).

How the values were obtained:
[1] = tested on: C. elegans CB211 lev-1(e211) IV.; experiment: Chitinase assay (reproductive capacity); assay type: in vivo; details: Caenorhabditis elegans; levamisole-resistant strain
Protocol: (§1) C. elegans strains used in this study were N2 (wild-type), levamisole-resistant strains ZZ15 (lev-8(x15) X) and […] (lev-1(e211) IV), ivermectin-resistant strain DA1316 (avr-14(ad1305) I; avr-15(vu227) glc-1(pk54) V), mebendazole-resistant strain […] (ben-1(e1880) III), and three strains with mutations in succinate dehydrogenase, RP2699, RP2700, and RP2702. The worms were cultivated on Nematode Growth Medium agar plates seeded with Escherichia coli OP50 in 20 °C according to the standard cultivation protocols. Strains RP2699, RP2700, and RP2702 were generated by Prof. Peter Roy’s group. All other strains and bacteria were purchased from the Caenorhabditis Genetics Center (CGC, Minneapolis, MN).
(§2) The effect of compounds on C. elegans was evaluated using the Chitinase assay as we described previously.
(§3) Lastly, strain DA1316 has mutations in three genes encoding subunits of the glutamate-gated chloride channel and is highly resistant to avermectins.

[2] = tested on: C. elegans DA1316 avr-14(ad1305) I; avr-15(vu227) glc-1(pk54) V.; experiment: Chitinase assay (reproductive capacity); assay type: in vivo; details: Caenorhabditis elegans; ivermectin-resistant strain
Protocol: as §1, §2, §3

[3] = tested on: C. elegans ZZ15 lev-8(x15) X.; experiment: Chitinase assay (reproductive capacity); assay type: in vivo; details: Caenorhabditis elegans; levamisole-resistant strain
Protocol: as §1, §2, §3

[4] = tested on: C. elegans CB3474 ben-1(e1880) III.; experiment: Chitinase assay (reproductive capacity); assay type: in vivo; details: Caenorhabditis elegans; mebendazole-resistant strain
Protocol: as §1, §2, §3

Skin fibroblasts (BJ) = experiment: Resazurin assay, 3-day treatment; assay type: cell-based, human; details: BJ
[5] = tested on: Arabidopsis thaliana Col-0; experiment: Germination rate and phytotoxicity; assay type: in vivo; details: for average fraction of germinated seeds: 5 DPS; for main root length / plant weight: 10 DPS
In short: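 Sterilized Col-0 seeds sown on 1/2 MS with compounds at 5, 10, 50 and 100 μM in 0.3% DMSO (DMSO mock), grown under 16 h light/8 h dark at 22 °C/20 °C. Germination rate scored at day 5; primary root length and seedling weight after further 5 days.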

[6] = tested on: Heterodera schachtii second-stage juveniles (J2); experiment: Motility on WMicrotracker ONE; assay type: in vivo
In short: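 Second-stage juveniles of H. schachtii, reared on in vitro mustard roots on modified KNOP medium, were exposed to compounds in microtiter wells. Motility was scored as activity counts, i.e. interruptions of infrared microbeams passing through each well.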

C. elegans N2 wild-type = experiment: Chitinase assay (reproductive capacity); assay type: in vivo, Caenorhabditis elegans; details: Caenorhabditis elegans
In short: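 Wild-type N2 L1 larvae were exposed to compounds for 4 days, then populations were examined microscopically and Chitinase activity, released at hatching, was measured as a read-out of reproduction. Failure from acute or reproductive toxicity or developmental defects is detected.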

[7] = 10 µM group, initial (prior to the treatment)
[8] = 50 µM group, initial (prior to the treatment)
[9] = 100 µM group, initial (prior to the treatment)

Compound | IC50 [1] [µM] | IC50 [2] [µM] | IC50 [3] [µM] | IC50 [4] [µM] | Average viability (signal intensity relative to control) (Skin fibroblasts (BJ); 10 µM) | Average viability (signal intensity relative to control) (Skin fibroblasts (BJ); 20 µM) | Average viability (signal intensity relative to control) (Skin fibroblasts (BJ); 40 µM) | average fraction of germinated seeds ([5]; 5 µM) | main root length ([5]; 5 µM) [mm] | plant weight ([5]; 5 µM) [mg] | average fraction of germinated seeds ([5]; 10 µM) | main root length ([5]; 10 µM) [mm] | plant weight ([5]; 10 µM) [mg] | average fraction of germinated seeds ([5]; 50 µM) | main root length ([5]; 50 µM) [mm] | plant weight ([5]; 50 µM) [mg] | average activity counts [6, 7] | average activity counts ([6]; 10 µM, 48 h) | average activity counts ([6]; 10 µM, 72 h) | average activity counts [6, 8] | further results
CCCOc1cccc(-c2ccc3[nH]ccc3c2)c1 [i-12] | 8.69 ± 1.26 | 7.59 ± 1.99 | 8.03 ± 1.13 | 8.32 ± 0.74 | 0.96 ± 0.01 | 1.04 ± 0.05 | 0.96 ± 0.03 | 0.96 | 37.25 | 32.51 | 0.93 | 38.66 | 34.91 | 0.93 | 35.82 | 27.55 | 192 | 200 | 158 | 176 | average activity counts ([6]; 50 µM, 48 h): 195; average activity counts ([6]; 50 µM, 72 h): 136; average activity counts [6, 9]: 195; average activity counts ([6]; 100 µM, 48 h): 166; average activity counts ([6]; 100 µM, 72 h): 177; IC50 (C. elegans N2 wild-type): 9.6 ± 0.9 µM
CCCOc1ccc(-c2ccc3[nH]ccc3c2)cc1 [i-13] | 8.8 ± 1.21 | 8.45 ± 1.36 | 7.63 ± 0.91 | 8.28 ± 0.99 | 0.97 ± 0.01 | 1 ± 0.05 | 0.98 ± 0.03 | 0.98 | 40.24 | 37.8 | 0.93 | 39.42 | 36.95 | 0.91 | 36.26 | 26.29 | 166 | 159 | 141 | 192 | average activity counts ([6]; 50 µM, 48 h): 183; average activity counts ([6]; 50 µM, 72 h): 163; average activity counts [6, 9]: 192; average activity counts ([6]; 100 µM, 48 h): 144; average activity counts ([6]; 100 µM, 72 h): 150; IC50 (C. elegans N2 wild-type): 7.09 ± 0.72 µM
